Common to all, as to format: physicochemical
Data set [1] is described as follows: Solubility in aqueous ammonium hydroxide buffer. The settings on record: for solubility: water containing 0.1 vol % ammonium hydroxide, water containing 0.1% by volume ammonium hydroxide. The method, then: SEQ ID NO:2 or SEQ ID NO:4 was dissolved at 20 mg/mL in an aqueous solution with sufficient ammoniumhydroxide to obtain a pH of 9. This solution was purified in 5 mL aliquots using an Agilent, Inc. model 1100 preparative HPLC equipped with a Phenomenex, Inc. Gemini® 5 μm C18 column (100×30 mm). An elution gradient of water and acetonitrile (each containing 0.1 vol % ammonium hydroxide buffer) was used, as shown in FIG. 2A. The flow rate was 15 mL/min, and the mobile phase was pre-heated to ca. 45° C. using a Timberline Instruments TL-105 column heater.
While the amino acid sequence change between SEQ ID NO:2 and SEQ ID NO:6 appears at first glance to be relatively minor, it nevertheless confers several important and unexpected consequences. The additional glutamic acid residue increases the aqueous solubility and broadens the type of aqueous buffers in which the molecule is soluble. Absent this modification, the only amino acid side chains that are ionized under physiological conditions in SEQ ID NO:6 form a zwitterion (e.g. Glu-Ile-Lys), which limits the molecule's solubility in most aqueous buffers. […] This change has important implications for the manufacturability and clinical development of the peptide amphiphile, as solubility in an ammonium hydroxide buffer greatly facilitates purification by HPLC.
This seemingly insignificant modification (the deletion of one methylene group from the residue) results in a greater than 20-fold increase in aqueous solubility of the peptide amphiphile in an ammonium hydroxide buffer, greatly facilitating purification by HPLC (see FIG. 2D).

Data set [2] can be described thus: Gelation kinetics and rheological properties of gels formed in artificial cerebrospinal fluid (rheometer). The conditions noted are these: for tan(δ) (loss modulus divided by storage modulus): gel in artificial cerebrospinal fluid. The method, then: Chemical structures for these molecules are also depicted in FIG. 1. Experiments were performed to examine the gelation kinetics and rheological properties of SEQ ID NO:2 with SEQ ID NO:6. Peptide amphiphile samples were dissolved in water at a concentration of 10 mg/mL.
A Physica, Inc. MCR 300 Molecular Compact Rheometer equipped with a 25 mm plate was used to measure stiffness of gels formed by SEQ ID NO:2 and SEQ ID NO:6 in vitro. Samples were measured at 21° C., 0.5% shear strain, with a frequency (ω) of 10 Hz and a gap between the plates of 0.5 mm. G′ (storage modulus) and […] were measured with respect to time post-gelation.
Tan(δ) (defined as the loss modulus divided by the storage modulus) quantifies the balance between energy loss and energy storage in a material, regardless of viscosity.

Data set [3] can be described thus: Dissolution in water on pH adjustment with NaOH. The conditions noted are these: 5 mg/mL in water, pH adjusted to 7.0-7.5 with NaOH. The method, then: The lyophilized peptide amphiphile powder was weighed and re-dissolved in USP pharmaceutical grade water at a concentration of 5 mg/mL. The colloidal suspension obtained was agitated in an ultrasonic bath for 30 min.

[4] abbreviates: 21° C., 0.5% shear strain, 10 Hz.

“Also recorded” adds a separate entry of the source. Where a SMILES comes first, the peptide text is derived from it. The star is where a group is joined. Palmitoyl = CCCCCCCCCCCCCCCC(=O)*

With `CCCCCCCCCCCCCCCC(=O)N[C@@H](CO)C(=O)N[C@@H](CC(C)C)C(=O)N[C@@H](CO)C(=O)N[C@@H](CC(C)C)C(=O)N[C@@H](C)C(=O)N[C@@H](C)C(=O)N[C@@H](C)C(=O)N[C@@H](CCC(=O)O)C(=O)N[C@@H](CCC(=O)O)C(=O)N[C@H](C(=O)N[C@@H](CCCCN)C(=O)N[C@H](C(=O)N[C@@H](C)C(=O)N[C@H](C(=O)O)C(C)C)C(C)C)[C@@H](C)CC` [SEQ ID NO:2, C16H31O-Ser-Leu-Ser-Leu-Ala-Ala-Ala-Glu-Glu-Ile-Lys-Val-Ala-Val-OH] (Palmitoyl-SLSLAAAEEIKVAV-OH), the solubility in data set [1] was more than 20 mg/mL. In data set [2] (10 mg/mL in water mixed with equal volume of artificial CSF), the “self-assembly / gel formation induced by artificial CSF” value was “resulting in a gel with the desired properties”. Besides, the “tan(δ) (loss modulus divided by storage modulus)” value in data set [2] (setting [4]) was “significantly lower”. Besides, the “complex shear modulus (G*) compared with SEQ ID NO:6” value in data set [2] (one hour post-gelation, 10 mg/mL solution mixed with equal volume of artificial CSF, 21° C., 0.5% shear strain, 10 Hz) was “an order of magnitude greater”. In addition, the “dissolution of colloidal suspension on pH adjustment” value in data set [3] is recorded as “go readily into solution”.

Take `CCCCCCCCCCCCCCCC(=O)N[C@@H](CO)C(=O)N[C@@H](CC(C)C)C(=O)N[C@@H](CO)C(=O)N[C@@H](CC(C)C)C(=O)N[C@@H](C)C(=O)N[C@@H](C)C(=O)N[C@@H](C)C(=O)N[C@@H](CC(=O)O)C(=O)N[C@H](C(=O)N[C@@H](CCCCN)C(=O)N[C@H](C(=O)N[C@@H](C)C(=O)N[C@H](C(=O)O)C(C)C)C(C)C)[C@@H](C)CC` [SEQ ID NO:4, C16H31O-Ser-Leu-Ser-Leu-Ala-Ala-Ala-Asp-Ile-Lys-Val-Ala-Val-OH] (Palmitoyl-SLSLAAADIKVAV-OH): the “increase in aqueous solubility relative to SEQ ID NO:6” value in data set [1] (ammonium hydroxide buffer) is reported as “greater than 20 fold”. Moreover, the solubility in data set [1] is more than 20 mg/mL. The “dissolution of colloidal suspension on pH adjustment” value in data set [3] is listed as “go readily into solution”.

On to `CCCCCCCCCCCCCCCC(=O)N[C@@H](CO)C(=O)N[C@@H](CC(C)C)C(=O)N[C@@H](CO)C(=O)N[C@@H](CC(C)C)C(=O)N[C@@H](C)C(=O)N[C@@H](C)C(=O)N[C@@H](C)C(=O)N[C@@H](CCC(=O)O)C(=O)N[C@H](C(=O)N[C@@H](CCCCN)C(=O)N[C@H](C(=O)N[C@@H](C)C(=O)N[C@H](C(=O)O)C(C)C)C(C)C)[C@@H](C)CC` [SEQ ID NO:6, C16H31O-Ser-Leu-Ser-Leu-Ala-Ala-Ala-Glu-Ile-Lys-Val-Ala-Val-OH, reference compound] (Palmitoyl-SLSLAAAEIKVAV-OH), for which the “solubility (in words)” value in data set [1] (0.1 vol % ammonium hydroxide aqueous buffer) is listed as “relatively low solubility; also recorded: only sparingly soluble”. In data set [1], the solubility is less than 1 mg/mL. The “tan(δ) (loss modulus divided by storage modulus)” value in data set [2] (setting [4]) was “liquid-like”.

The values are drawn from patent US8076295B2, “Peptide amphiphiles having improved solubility and methods of using same” (Nanotope, Inc., priority 2007, dated 2011).
